The values that follow are results of earlier work, collected in US20220288054A1, “COMPOSITIONS AND METHODS TO TREAT NON-ALCOHOLIC FATTY LIVER DISEASES (NAFLD)” (Coherus Biosciences, Inc., priority 2019, published 2022).

For data set [1] the following is noted: monotherapy, STELLAR-4 phase 3.
Another data set has as its system diabetic rodents. The following applies: administered to diabetic rodents.

In the case of `CCCCOCCOc1ccc(-c2ccc3c(c2)/C=C(/C(=O)Nc2ccc([S@@+]([O-])Cc4cncn4CCC)cc2)CCCN3CC(C)C)cc1` [Cenicriviroc], where the note is “289 patients, 1 year of therapy”, the safety profile entry was “excellent safety profile”. Under “289 patients, after 1 year of therapy”, the liver fibrosis improvement result is given as “consistently demonstrated liver fibrosis improvement”. The antifibrotic activity entry (adult patients with NASH and fibrosis, phase 2b) is “provided antifibrotic activity”. For the same molecule, under “adult patients, oral, phase 2b”, the tolerability result is recorded as “well-tolerated”.

`Cc1cc(F)c(C(=O)Nc2cccc(-c3nncn3C(C)C)n2)cc1-n1cnc(C2CC2)c1` [selonsertib]: in data set [1], the primary endpoint result is “failed to meet the primary endpoint”.

B1: FGF21: amino acid sequence shown in FIG. 3 (SEQ ID NO: 3) (protein, listed as Homo sapiens)
chain: MDSDETGFEHSGLWVSVLAGLLLGACQAHPIPDSSPLLQFGGQVRQRYLYTDDAQQTEAHLEIREDGTVGGAADQSPESLLQLKALKPGVIQILGVKTSRFLCQRPDGALYGSLHFDPEACSFRELLLEDGYNVYQSEAHGLPLHLPGNKSPHRDPAPRGPARFLPLPGLPPALPEPPGILAPQPPDVGSSDPLSMVGPSQGRSPSYAS
Consider B1, for which the glucose uptake entry in the data set on mouse adipocytes is recorded as “activates glucose uptake”. In addition, the “blood glucose and triglyceride levels” value in the data set on diabetic rodents is “lower blood glucose and triglyceride levels”.
